Laboratory results: patent US12077503B2, “Substituted cyclic amides and their use as herbicides” (FMC CORPORATION, priority 2015, dated 2024)

Assays:
Format in all cases: in vivo
Kochia (Kochia scoparia) [1] = test: Test A preemergence; settings: Preemergence; for Plant response rating, Kochia: 125 g ai/ha, visual injury after approximately 10 d, 0 to 100 scale where 0 is no effect and 100 is complete control; for Kochia plant response rating (0 to 100 scale, 0 is no effect, 100 is complete control): 500 g ai/ha, visual injury approx. 10 d
Source text: (§1) Seeds of plant species selected from barnyardgrass (Echinochloa crus-galli), Kochia (Kochia scoparia), ragweed (common ragweed, Ambrosia elatior), ryegrass, Italian (Italian ryegrass, Lolium multiflorum), crabgrass, large (Digitaria sanguinalis), giant foxtail (Setaria faberii), green foxtail (Setaria viridis), morningglory (Ipomoea spp.), pigweed (Amaranthus retroflexus), velvetleaf (Abutilon theophrasti), wheat (Triticum aestivum), and corn (Zea mays) were planted into a blend of loam soil and sand and treated preemergence with a directed soil spray using test chemicals formulated in anon-phytotoxic solvent mixture which included a surfactant.
(§2) At the same time, plants selected from these crop and weed species and also blackgrass (Alopecurus myosuroides), and Galium (catchweed bedstraw, Galium aparine) were planted in pots containing the same blend of loam soil and sand and treated with postemergence applications of test chemicals formulated in the same manner. Plants ranged in height from 2 to 10 cm and were in the one- to two-leaf stage for the postemergence treatment. Treated plants and untreated controls were maintained in a greenhouse for approximately 10 d, after which time all treated plants were compared to untreated controls and visually evaluated for injury. Plant response ratings, summarized in Table A, are based on a 0 to 100 scale where 0 is no effect and 100 is complete control. A dash (-) response means no test result.

[2] = test system: ryegrass, Italian (Italian ryegrass, Lolium multiflorum); test: Test A preemergence; settings: Preemergence; for Plant response rating, Ryegrass, Italian: 125 g ai/ha, visual injury after approximately 10 d, 0 to 100 scale where 0 is no effect and 100 is complete control; for Ryegrass, Italian plant response rating (0 to 100 scale, 0 is no effect, 100 is complete control): 500 g ai/ha, visual injury approx. 10 d
Source text: as §1, §2

[3] = test system: pigweed (Amaranthus retroflexus); test: Test A preemergence; settings: Preemergence; for Plant response rating, Pigweed: 125 g ai/ha, visual injury after approximately 10 d, 0 to 100 scale where 0 is no effect and 100 is complete control; for Pigweed plant response rating (0 to 100 scale, 0 is no effect, 100 is complete control): 500 g ai/ha, visual injury approx. 10 d
Source text: as §1, §2

[4] = test system: giant foxtail (Setaria faberii); test: Test A preemergence; settings: Preemergence; for Plant response rating, Foxtail, Giant: 125 g ai/ha, visual injury after approximately 10 d, 0 to 100 scale where 0 is no effect and 100 is complete control; for Foxtail, Giant plant response rating (0 to 100 scale, 0 is no effect, 100 is complete control): 500 g ai/ha, visual injury approx. 10 d
Source text: as §1, §2

[5] = test system: barnyardgrass (Echinochloa crus-galli); test: Test A preemergence; settings: Preemergence; for Plant response rating, Barnyardgrass: 125 g ai/ha, visual injury after approximately 10 d, 0 to 100 scale where 0 is no effect and 100 is complete control; for Barnyardgrass plant response rating (0 to 100 scale, 0 is no effect, 100 is complete control): 500 g ai/ha, visual injury approx. 10 d
Source text: as §1, §2

[6] = test system: ragweed (common ragweed, Ambrosia elatior); test: Test A preemergence; settings: Preemergence; for Plant response rating, Ragweed: 125 g ai/ha, visual injury after approximately 10 d, 0 to 100 scale where 0 is no effect and 100 is complete control; for Ragweed plant response rating (0 to 100 scale, 0 is no effect, 100 is complete control): 500 g ai/ha, visual injury approx. 10 d
Source text: as §1, §2

Kochia (Kochia scoparia) [7] = test: Test A postemergence
Source text: as §1, §2

[8] = test system: wheat (Triticum aestivum); test: Test A postemergence
Source text: as §1, §2

corn (Zea mays) = test: Test A postemergence
Source text: as §1, §2

[9] = test system: ryegrass, Italian (Italian ryegrass, Lolium multiflorum); test: Test A postemergence
Source text: as §1, §2

[10] = test system: pigweed (Amaranthus retroflexus); test: Test A postemergence
Source text: as §1, §2

[11] = test system: giant foxtail (Setaria faberii); test: Test A postemergence
Source text: as §1, §2

[12] = test system: barnyardgrass (Echinochloa crus-galli); test: Test A postemergence
Source text: as §1, §2

[13] = test system: ragweed (common ragweed, Ambrosia elatior); test: Test A postemergence
Source text: as §1, §2

[14] = test system: blackgrass (Alopecurus myosuroides); test: Test A postemergence
Source text: as §1, §2

[15] = test system: Galium (catchweed bedstraw, Galium aparine); test: Test A postemergence
Source text: as §1, §2

[16] = 125 g ai/ha, postemergence, visual rating after approx. 10 d, 0 to 100 scale (0 no effect, 100 complete control)
[17] = Postemergence, 500 g ai/ha, 0 to 100 scale where 0 is no effect and 100 is complete control
[18] = 125 g ai/ha, postemergence, visual injury rating on 0 to 100 scale (0 no effect, 100 complete control), approx. 10 d

Compound	Plant response rating, Kochia (Kochia (Kochia scoparia) [1])	Kochia plant response rating (0 to 100 scale, 0 is no effect, 100 is complete control) (Kochia (Kochia scoparia) [1])	Plant response rating, Ryegrass, Italian [2]	Ryegrass, Italian plant response rating (0 to 100 scale, 0 is no effect, 100 is complete control) [2]	Plant response rating, Pigweed [3]	Pigweed plant response rating (0 to 100 scale, 0 is no effect, 100 is complete control) [3]	Plant response rating, Foxtail, Giant [4]	Foxtail, Giant plant response rating (0 to 100 scale, 0 is no effect, 100 is complete control) [4]	Plant response rating, Barnyardgrass [5]	Barnyardgrass plant response rating (0 to 100 scale, 0 is no effect, 100 is complete control) [5]	Plant response rating, Ragweed [6]	Ragweed plant response rating (0 to 100 scale, 0 is no effect, 100 is complete control) [6]	Plant response rating, Kochia (Kochia (Kochia scoparia) [7]; [16])	Plant response rating, Kochia (Kochia (Kochia scoparia) [7]; [17])	Plant response rating, Wheat [8, 16]	Plant response rating, Wheat [8, 17]	Plant response rating, Corn (corn (Zea mays); [16])	Plant response rating, Corn (corn (Zea mays); [17])	Plant response rating, Ryegrass, Italian [9, 16]	Plant response rating, Ryegrass, Italian [9, 17]	also measured
Cc1ccc(C2CN(C)C(=O)C2C(=O)Nc2ccc(F)cc2F)c(F)c1 (stereo not shown) [Compound 559]	60	80	0	50	20	50	90	100	90	100	0	20	30	70	0	50	0	30	0	30	Plant response rating, Pigweed [10, 16]: 0; Plant response rating, Pigweed [10, 17]: 0; Plant response rating, Foxtail, Giant [11, 16]: 90; Plant response rating, Foxtail, Giant [11, 17]: 90; Plant response rating, Barnyardgrass [12, 16]: 90; Plant response rating, Barnyardgrass [12, 17]: 100; Plant response rating, Ragweed [13, 16]: 0; Plant response rating, Ragweed [13, 17]: 0; Plant response rating, Blackgrass [14, 16]: 20; Plant response rating, Blackgrass [14, 17]: 60; Plant response rating, Galium [15, 16]: 50; Plant response rating, Galium [15, 17]: 60
O=C(Nc1cccc(F)c1F)C1C(=O)N(C2C=CCCC2)CC1c1cccc(C(F)(F)F)c1 (stereo not shown) [Compound 525]	0	0	0	0	0	0	30	70	30	50	0	0	0	0	0	0	0	0	0	0	Plant response rating, Pigweed [10, 16]: 0; Plant response rating, Pigweed [10, 17]: 0; Plant response rating, Foxtail, Giant [11, 16]: 20; Plant response rating, Foxtail, Giant [11, 17]: 60; Barnyardgrass plant response rating [12, 18]: 40; Plant response rating, Barnyardgrass [12, 17]: 40; Plant response rating, Ragweed [13, 16]: 0; Plant response rating, Ragweed [13, 17]: 0; Blackgrass plant response rating [14, 18]: 0; Plant response rating, Blackgrass [14, 17]: 30; Plant response rating, Galium [15, 16]: 0; Plant response rating, Galium [15, 17]: 0
Cc1ccc(C2CN(C)C(=O)C2C(=O)Nc2ccccc2F)c(F)c1 (stereo not shown) [Compound 560]	60	80	0	70	0	40	100	100	90	100	0	0	40	80	0	50	0	30	0	60	Plant response rating, Pigweed [10, 16]: 0; Plant response rating, Pigweed [10, 17]: 20; Plant response rating, Foxtail, Giant [11, 16]: 90; Plant response rating, Foxtail, Giant [11, 17]: 90; Plant response rating, Barnyardgrass [12, 16]: 90; Plant response rating, Barnyardgrass [12, 17]: 100; Plant response rating, Ragweed [13, 16]: 0; Plant response rating, Ragweed [13, 17]: 20; Plant response rating, Blackgrass [14, 16]: 30; Plant response rating, Blackgrass [14, 17]: 50; Plant response rating, Galium [15, 16]: 40; Plant response rating, Galium [15, 17]: 60
O=C1NCC(c2ccc(OC(F)F)cc2)C1C(=O)Nc1cccc(F)c1F (stereo not shown) [Compound 561]	70	90	0	40	80	90	90	90	90	90	80	80	70	80	30	70	10	60	20	60	Plant response rating, Pigweed [10, 16]: 60; Plant response rating, Pigweed [10, 17]: 70; Plant response rating, Foxtail, Giant [11, 16]: 90; Plant response rating, Foxtail, Giant [11, 17]: 90; Plant response rating, Barnyardgrass [12, 16]: 90; Plant response rating, Barnyardgrass [12, 17]: 90; Plant response rating, Ragweed [13, 16]: 20; Plant response rating, Ragweed [13, 17]: 40; Plant response rating, Blackgrass [14, 16]: 50; Plant response rating, Blackgrass [14, 17]: 70; Plant response rating, Galium [15, 16]: 60; Plant response rating, Galium [15, 17]: 60
CCc1cccc(C2CN(C)C(=O)C2C(=O)Nc2ccccc2S(C)(=O)=O)c1 (stereo not shown) [Compound 569]	60	90	30	70	50	80	100	100	90	100	60	70	20	50	30	70	20	60	40	60	Plant response rating, Pigweed [10, 16]: 0; Plant response rating, Pigweed [10, 17]: 50; Plant response rating, Foxtail, Giant [11, 16]: 90; Plant response rating, Foxtail, Giant [11, 17]: 90; Plant response rating, Barnyardgrass [12, 16]: 90; Plant response rating, Barnyardgrass [12, 17]: 90; Plant response rating, Ragweed [13, 16]: 30; Plant response rating, Ragweed [13, 17]: 60; Plant response rating, Blackgrass [14, 16]: 60; Plant response rating, Blackgrass [14, 17]: 80; Plant response rating, Galium [15, 16]: 40; Plant response rating, Galium [15, 17]: 60
